Measurements as given in patent US10975101B2, “Ultra-potent vinca alkaloids: added molecular complexity further disrupts the tublin dimer-dimer interface” (priority 2016, dated 2021).
Like-named read-outs stand apart in the source and are kept apart here.

What was measured:
[1] = tested on: HCT116 (human colorectal carcinoma) cells; conditions: cited from earlier work; for IC50: previously reported (footnote a, Barker et al. 2013) or background art table; for less potent than vinblastine: cell growth inhibition, background art (Leggans 2012; Barker 2012)
[2] = tested on: HCT116/VM46 (a vinblastine-resistant strain of HCT116) cells; conditions: previously reported (footnote a, Barker et al. 2013) or background art table; cited from earlier work
[3] = tested on: vinblastine sensitive tumor cell lines (L1210 and HCT116); assay: Cell growth inhibition, vinblastine-sensitive lines stated together; assay type: cell-based; conditions: L1210 and HCT116, range over both lines; read-out: IC50's against vinblastine-sensitive tumor cell lines
Procedure: (§1) Compounds were tested for their cell growth inhibition of L1210 (ATCC no. CCL-219, mouse lymphocytic leukemia) cells, HCT116 (ATCC no. CCL-247, human colorectal carcinoma) cells, and HCT116/VM46 (a vinblastine-resistant strain of HCT116) cells in culture. A population of cells (>1×10^6 cells/mL as determined with a hemocytometer) was diluted with an appropriate amount of Dulbecco's Modified Eagle Medium (DMEM, Gibco) containing 10% fetal bovine serum (FBS, Gibco) to a final concentration of 30000 cells/mL.
(§2) To each well of a 96-well plate (Corning Costar), 100 μL of the cell media solution was added with a multichannel pipet. The cultures were incubated at 37° C. in an atmosphere of 5% CO2 and 95% humidified air for 24 hours. The test compounds were added to the plate as follows: test substances were diluted in DMSO to a concentration of 1 mM and 10-fold serial dilutions were performed on a separate 96-well plate. Fresh culture medium (100 μL) was added to each well of cells to constitute 200 μL of medium per well followed by 2 μL of each test agent. Compounds were tested in duplicate (n=2-18 times) at six concentrations between 0-1000 nM or 0-10000 nM. Following addition, cultures were incubated for an additional 72 hours.
(§3) A phosphatase assay was used to establish the IC50 values as follows: the media in each cell was removed and 100 μL of phosphatase solution (100 mg phosphatase substrate in 30 mL of 0.1 M NaOAc, pH 5.5, 0.1% Triton X-100 buffer) was added to each well. The plates were incubated at 37° C. for either 5 minutes (L1210) or 15 minutes (HCT116 and HCT116/VM46). After the given incubation time, 50 μL of 0.1 N NaOH was added to each well and the absorption at 405 nm was determined using a 96 well plate reader. As the absorption is directly proportional to the number of living cells, the IC50 values were calculated and the reported values represent of the average of 4-36 determinations (SD±10%).

[4] = tested on: HCT116/VM46 (a vinblastine-resistant strain of HCT116) cells; assay: Cell growth inhibition assay, HCT116/VM46; assay type: cell-based, human; conditions: 72 hours incubation, phosphatase assay, Pgp-overexpressing resistant line
Procedure: as §1, §2, §3

[5] = tested on: HCT116 (human colorectal carcinoma) cells; assay: cells; assay type: cell-based; conditions: read-out: IC50, HCT116
Procedure: as §1, §2, §3

[6] = tested on: L1210 (mouse lymphocytic leukemia) cells; assay: Cell growth inhibition assay, L1210; assay type: cell-based; conditions: 72 hours incubation, phosphatase assay
Procedure: as §1, §2, §3

[7] = 72 hours incubation, phosphatase assay

SMILES	IC50 [4] [nM]	IC50 [5, 7] [nM]	IC50 [6] [nM]	further results
CC[C@@H]1C[C@H]2CN(CCc3c([nH]c4ccccc34)[C@@](C(=O)OC)(c3cc4c(cc3OC)N(C)[C@H]3[C@@](O)(C(=O)OC)[C@H](OC(C)=O)[C@]5(CC)C=CCN6CC[C@]43[C@@H]65)C2)C1 [Compound 4, reference compound]	–	–	–	IC50 [1]: 60 nM; IC50 [2]: 600 nM
CC[C@]1(N=[N+]=[N-])C[C@H]2CN(CCc3c([nH]c4ccccc34)[C@@](C(=O)OC)(c3cc4c(cc3OC)N(C)[C@H]3[C@@](O)(C(=O)OC)[C@H](OC(C)=O)[C@]5(CC)C=CCN6CC[C@]43[C@@H]65)C2)C1 [Compound 5]	–	–	–	less potent than vinblastine [1]: 100 fold; IC50 [1]: 690 nM; IC50 [2]: 5500 nM
CC[C@]1(N)C[C@H]2CN(CCc3c([nH]c4ccccc34)[C@@](C(=O)OC)(c3cc4c(cc3OC)N(C)[C@H]3[C@@](O)(C(=O)OC)[C@H](OC(C)=O)[C@]5(CC)C=CCN6CC[C@]43[C@@H]65)C2)C1 [Compound 6, 20′-aminovinblastine]	–	–	–	less potent than vinblastine [1]: 100 fold; IC50 [1]: 600 nM; IC50 [2]: > 10000 nM
CC[C@]1(NC(N)=O)C[C@H]2CN(CCc3c([nH]c4ccccc34)[C@@](C(=O)OC)(c3cc4c(cc3OC)N(C)[C@H]3[C@@](O)(C(=O)OC)[C@H](OC(C)=O)[C@]5(CC)C=CCN6CC[C@]43[C@@H]65)C2)C1 [Compound 7, reference compound]	–	–	–	IC50 [1]: 7.5 nM; IC50 [2]: 4400 nM
CC[C@]1(NC(=O)N2Cc3ccc(NC(C)=O)cc3C2)C[C@H]2CN(CCc3c([nH]c4ccccc34)[C@@](C(=O)OC)(c3cc4c(cc3OC)N(C)[C@H]3[C@@](O)(C(=O)OC)[C@H](OC(C)=O)[C@]5(CC)C=CCN6CC[C@]43[C@@H]65)C2)C1 [Compound 40]	9.4	0.5	0.47	IC50 [3]: 0.47 to 0.5 nM
CC[C@]1(NC(=O)N2Cc3ccc(NC(=O)C(C)(C)C)cc3C2)C[C@H]2CN(CCc3c([nH]c4ccccc34)[C@@](C(=O)OC)(c3cc4c(cc3OC)N(C)[C@H]3[C@@](O)(C(=O)OC)[C@H](OC(C)=O)[C@]5(CC)C=CCN6CC[C@]43[C@@H]65)C2)C1 [Compound 44]	5.3	0.47	0.39	–
CCCCCC(=O)Nc1ccc2c(c1)CN(C(=O)N[C@@]1(CC)C[C@H]3CN(CCc4c([nH]c5ccccc45)[C@@](C(=O)OC)(c4cc5c(cc4OC)N(C)[C@H]4[C@@](O)(C(=O)OC)[C@H](OC(C)=O)[C@]6(CC)C=CCN7CC[C@]54[C@@H]76)C3)C1)C2 [Compound 45]	13	0.62	0.44	–
C=CC(=O)Nc1ccc2c(c1)CN(C(=O)N[C@@]1(CC)C[C@H]3CN(CCc4c([nH]c5ccccc45)[C@@](C(=O)OC)(c4cc5c(cc4OC)N(C)[C@H]4[C@@](O)(C(=O)OC)[C@H](OC(C)=O)[C@]6(CC)C=CCN7CC[C@]54[C@@H]76)C3)C1)C2 [Compound 46]	7.1	0.3	0.38	–
CC[C@]1(NC(=O)N2Cc3ccc(NC(=O)C=C(C)C)cc3C2)C[C@H]2CN(CCc3c([nH]c4ccccc34)[C@@](C(=O)OC)(c3cc4c(cc3OC)N(C)[C@H]3[C@@](O)(C(=O)OC)[C@H](OC(C)=O)[C@]5(CC)C=CCN6CC[C@]43[C@@H]65)C2)C1 [Compound 48]	7.4	0.47	0.43	–
CC[C@]1(NC(=O)N2Cc3ccc(NC(=O)c4ccccc4)cc3C2)C[C@H]2CN(CCc3c([nH]c4ccccc34)[C@@](C(=O)OC)(c3cc4c(cc3OC)N(C)[C@H]3[C@@](O)(C(=O)OC)[C@H](OC(C)=O)[C@]5(CC)C=CCN6CC[C@]43[C@@H]65)C2)C1 [Compound 50]	13	0.62	0.54	IC50 [3]: 0.5 to 0.6 nM
CC[C@]1(NC(=O)N2Cc3ccc(NC(=O)c4ccc(-c5ccccc5)cc4)cc3C2)C[C@H]2CN(CCc3c([nH]c4ccccc34)[C@@](C(=O)OC)(c3cc4c(cc3OC)N(C)[C@H]3[C@@](O)(C(=O)OC)[C@H](OC(C)=O)[C@]5(CC)C=CCN6CC[C@]43[C@@H]65)C2)C1 [Compound 51]	75	6.3	5.9	–
CC[C@]1(NC(=O)N2Cc3ccc(NC(=O)c4ccc(OC(F)(F)F)cc4)cc3C2)C[C@H]2CN(CCc3c([nH]c4ccccc34)[C@@](C(=O)OC)(c3cc4c(cc3OC)N(C)[C@H]3[C@@](O)(C(=O)OC)[C@H](OC(C)=O)[C@]5(CC)C=CCN6CC[C@]43[C@@H]65)C2)C1 [Compound 52]	75	5.3	4.3	–
CC[C@]1(NC(=O)N2Cc3ccc(NC(=O)c4ccc(C(C)C)cc4)cc3C2)C[C@H]2CN(CCc3c([nH]c4ccccc34)[C@@](C(=O)OC)(c3cc4c(cc3OC)N(C)[C@H]3[C@@](O)(C(=O)OC)[C@H](OC(C)=O)[C@]5(CC)C=CCN6CC[C@]43[C@@H]65)C2)C1 [Compound 53]	60	4.2	2.9	–
CCC1(NC(=O)N2Cc3cc(OC)c(OC)cc3C2)C[C@H]2CN(CCc3c([nH]c4ccccc34)[C@@](C(=O)OC)(c3cc4c(cc3OC)N(C)[C@H]3C(O)(C(=O)OC)[C@H](OC(C)=O)[C@]5(CC)C=CCN6CC[C@]43[C@@H]65)C2)C1 (stereo partly drawn) [Compound 54]	–	–	–	IC50 ([4]; Homo sapiens, HCT-116/VM46): 5.2 nM; IC50 ([5]; Homo sapiens, HCT-116, 72 h): 0.45 nM; IC50 ([6]; Mus musculus, L1210): 0.42 nM
CC[C@]1(NC(=O)N2Cc3ccc(NC(=O)c4ccccn4)cc3C2)C[C@H]2CN(CCc3c([nH]c4ccccc34)[C@@](C(=O)OC)(c3cc4c(cc3OC)N(C)[C@H]3[C@@](O)(C(=O)OC)[C@H](OC(C)=O)[C@]5(CC)C=CCN6CC[C@]43[C@@H]65)C2)C1 [Compound 55]	3.6	0.49	0.37	–
CC[C@]1(NC(=O)N2Cc3ccc(NC(=O)c4cccnc4)cc3C2)C[C@H]2CN(CCc3c([nH]c4ccccc34)[C@@](C(=O)OC)(c3cc4c(cc3OC)N(C)[C@H]3[C@@](O)(C(=O)OC)[C@H](OC(C)=O)[C@]5(CC)C=CCN6CC[C@]43[C@@H]65)C2)C1 [Compound 56]	6.6	0.33	0.48	–
CC[C@]1(NC(=O)N2Cc3ccc(NC(=O)c4ccncc4)cc3C2)C[C@H]2CN(CCc3c([nH]c4ccccc34)[C@@](C(=O)OC)(c3cc4c(cc3OC)N(C)[C@H]3[C@@](O)(C(=O)OC)[C@H](OC(C)=O)[C@]5(CC)C=CCN6CC[C@]43[C@@H]65)C2)C1 [Compound 57]	10.4	0.28	0.27	–
CC[C@]1(NC(=O)N2Cc3ccc(NC(=O)c4cncnc4)cc3C2)C[C@H]2CN(CCc3c([nH]c4ccccc34)[C@@](C(=O)OC)(c3cc4c(cc3OC)N(C)[C@H]3[C@@](O)(C(=O)OC)[C@H](OC(C)=O)[C@]5(CC)C=CCN6CC[C@]43[C@@H]65)C2)C1 [Compound 59]	8.8	0.6	0.51	–
CC[C@]1(NC(=O)N2Cc3ccc(NC(=O)c4ccnnc4)cc3C2)C[C@H]2CN(CCc3c([nH]c4ccccc34)[C@@](C(=O)OC)(c3cc4c(cc3OC)N(C)[C@H]3[C@@](O)(C(=O)OC)[C@H](OC(C)=O)[C@]5(CC)C=CCN6CC[C@]43[C@@H]65)C2)C1 [Compound 62]	50	0.64	0.69	–
